The values below come from US11260042B2, “Pharmaceutical combination for the treatment of cancer” (ABILITY PHARMACEUTICALS S.L., priority 2017, dated 2022).

The IC50 is the concentration that gives 50% inhibition.

Molecules are shown by their SMILES. “Also recorded” adds a separate entry of the source. Where two headings read alike, the source gives them in different places.

Data set [1] concerns MiaPaca2 human pancreatic cancer xenograft. The format is in vivo. As to conditions: ABTL0812 120 mg/kg oral; P/Gm 15 mg/kg and 60 mg/kg two times per week; 4 weeks. On the procedure:
Methods: Athymic female nude mice (n=9 per group) were injected via subcutaneous route with 0.1 ml of MiaPaca2 cells (5×10^6 cell/ml in serum free DMEM media in 1:1 with matrigel) in one flank. Tumor Volumes (TV) were measured as length×width^2×½ three times a week.

The next data set has as its system HTB-812 cells. In words: Cell viability (MTT) of ABTL0812 in combination with paclitaxel, HTB-812. The format is cell-based, human. The note with it: HTB-812, 48 hours, 0.1% FBS, single agent. On the procedure:
Methods: A549 cells were incubated with increasing concentrations of ABTL0812 (3-300 μM), paclitaxel (0.003-1 μM), or a combination of both using subIC50 fixed concentration of ABTL0812 and 0.003-1 μM paclitaxel for 72 hours in DMEM with 0.1% FBS. H157, H1957 and HTB-812 cells were incubated with increasing concentrations of paclitaxel (0.001-10 μM) alone and in combination with subIC50 fixed concentration of ABTL0812 for 48 hours in DMEM with 0.1% FBS. Cell viability was evaluated in all cases by MTT assay and IC50's were calculated for paclitaxel and the combination. The concentrations of the combinations for the different cell lines were:
Finally, the Combination Index (CI), as described in the previous section, was calculated for the values of paclitaxel IC50.

For data set [2], the system named is human endometrial cancer patient derived xenograft. In words: Patient-derived xenograft (PDX) endometrial model, paclitaxel and carboplatin. For orientation: In xenograft studies the graft and the host belong to different species.
Protocol: After tumors grew up to 100 mm^3, tumors were extracted from mice, minced in 2 mm long pieces and re-implanted in one flank of 40 mice. When average tumor volume reached 100 mm^3, mice were randomly distributed into treatment groups, and dosed as follows: vehicle (n=11); ABTL0812: 120 mg/kg orally, 5 times per week (n=10); paclitaxel/carboplatin (P/C): P:50 mg/kg/C:15 mg/kg intraperitoneal (n=12); and ABTL0812+P/C: ABTL0812 (n=10) was administered always two days prior to the first P/C administration and two days after, maintaining 4 doses of ABTL0812 and one of P/C per week; doses were the same as when given separately.
The effectiveness of the therapy was measured by the impact of the treatment on the tumor growth, which was measured by its volume. The health state of the animals and the drug-induced toxicity were determined by the animal body weight during the study. Tumor size evolution and tumor weight were evaluated by two-way ANOVA (day by day analysis).
In order to simulate the Phase II clinical trial design, where ABTL0812 will be administered chronically after P/C cycles, P/C treatment was removed from P/C and ABTL0812+P/C groups, maintaining ABTL0812 chronically. Tumor volume was measure after P/C treatment removal during an extra 17 days.
For data set [3], the system named is MiaPaca2 human pancreatic cancer xenograft. In words: Human pancreatic xenograft (MiaPaca-2), gemcitabine and Nab-paclitaxel/gemcitabine. The format is in vivo, Athymic Nude-Foxn1nu female mice. The note with it: ABTL0812 120 mg/kg oral 5 times a week; gemcitabine 60 mg/kg, Nab-Paclitaxel 5 mg/kg i.p. 2 times a week (suboptimal chemotherapy dose). The method, then: It is important to change the site of injection to avoid intestinal necrosis and keep Nab-Paclitaxel and gemcitabine injections as far as possible one from the other in mice abdomen. • Gemcitabine+ABTL0812 (n=10): treated orally with 120 mg/kg of ABTL0812 in 200 μl of distilled water+5% glycerol, 5 times a week and with 60 mg/kg of gemcitabine administered i.p in 100 μl of sterile water, 2 times a week. ABTL0812 was always administered before chemotherapy with the aim of reducing the stress derived from the i.p. injection, that is normally applied as the last administration. • Gemcitabine+Nab-Paclitaxel+ABTL0812 (n=8): treated orally with 120 mg/kg of ABTL0812 in 200 μl of distilled water+5% glycerol, 5 times a week, with 60 mg/kg of gemcitabine administered i.p. in 100 μl of sterile water, 2 times a week and with 5 mg/kg of Nab-Paclitaxel administered i.p. in 230 μl of 0.9% NaCl solution 2 times a week. As in the gemcitabine+Nab-Paclitaxel group, injections where administered in separated areas of the abdomen. […]
Treatment efficacy was assessed by measuring tumor volume three days a week. Additionally, total body weight was monitored three days a week to test the toxicity associated with the treatments in addition to visual examination of signs indicative of clinicopathological symptoms. […]

In data set [4] the test system is MiaPaca2 (human pancreatic carcinoma). In words: Cell viability (MTT) of ABTL0812 alone or with gemcitabine in pancreatic cancer. The format is cell-based. On the procedure:
Methods: MiaPaca2 cells were seeded in 24-well plates together with gemcitabine (0.01-100 μM), ABTL812 (3-300 μM), or a combination of both (subIC50, i.e., 25 μM fixed concentration of ABTL0812 with 0.01-100 μM gemcitabine) and left in the incubator for 72h (0.5% FBS). Cell viability was studied by the MTT assay and several parameters were determined to evaluate a possible synergism. First the IC50 for each drug alone or the combination was calculated. Then, synergism (CI) was calculated as described above.

As for `CCCCC/C=C\C/C=C\CCCCCCC(O)C(=O)O` (centres unmarked) [ABTL0812, COOH—CHOH—(CH2)6—(CH═CH—CH2)2—(CH2)3—CH3], the tumor volume entry in data set [1] was “positive effect within the first 15 days after treatment, showing similar tumor volume to vehicle group in the following days”; in data set [3] it was “better response in tumor volume evolution than Gem+Nab-Pac group during the first 20 days of treatment; also recorded: better response in tumor volume evolution than Gem group during the whole study”. The IC50 worked out at 29 µM with HTB-812 cells and 49 µM in data set [4] (MiaPaca2, 72h, 0.5% FBS, MTT, single agent). Besides, the “tumor growth after P/C removal” value in data set [2] (after day 47, P/C stopped, ABTL0812 maintained chronically, extra 17 days) is “tumor growth inhibition very similar to P/C”. The “tumor growth (volume)” value in data set [2] (first 47 days, ABTL0812 120 mg/kg orally, P 50 mg/kg / C 15 mg/kg i.p.) is “same efficacy as P/C”. In data set [2] (mouse, in vivo), the “total body weight, toxicity” value is “without any signs of relevant toxicity; also recorded: Body weight reduction was observed partially only in ABTL0812 group at day 15”. Moreover, the “cytotoxicity alone at the concentration chosen for the combination” value in data set [4] (MiaPaca2, 25 μM ABTL0812) was less than 10%.
